Experimental data published in patent US7960381B2, “Substituted gamma lactams as therapeutic agents” (Allergan, Inc., priority 2007, dated 2011).

Test system: normotensive dogs
Assay: Ocular surface hyperemia in normotensive dogs
Assay type: in vivo
Details: once daily for 5 days
Method: U.S. Pat. No. 7,091,231 describes the methods used for these in vivo tests.
5-(3-{(S)-1-[4-(1-Hydroxyhexyl)-phenyl]-5-oxo-pyrrolidin-2-yl}-propyl)-thiophene-2-carboxylic acid 2-hydroxyethyl ester (1) was tested in normotensive dogs at 0.003%, dosing once daily for 5 days. The maximum intraocular pressure (IOP) decrease from baseline was 4.4 mmHg (32%) at 30 h; the maximum ocular surface hyperemia (OSH) score was 0.9 at 30 h. This compound was also tested in laser-induced hypertensive monkeys, using one single day dose. At 0.003%, the maximum IOP decrease from baseline was 13.4 mmHg (38%) at 24 h. Compound 1 was also tested in normotensive dogs at 0.001%, dosing once daily for 5 days. The maximum intraocular pressure (IOP) decrease from baseline was 3.75 mmHg (23%) at 76 h; the maximum ocular surface hyperemia (OSH) score was 1.1 at 74 h. Compound 1 was also tested in laser-induced hypertensive monkeys, using one single day dose. At 0.001%, the maximum IOP decrease from baseline was 12.7 mmHg (31%) at 24 h.
5-(3-{(S)-1-[4-(1-Hydroxyhexyl)-phenyl]-5-oxo-pyrrolidin-2-yl}-propyl)-thiophene-2-carboxylic acid 2-morpholin-4-yl-ethyl ester (2) was tested in normotensive dogs at 0.003%, dosing once daily for 5 days. The maximum intraocular pressure (IOP) decrease from baseline was 5.9 mmHg (36%) at 52 h; the maximum ocular surface hyperemia (OSH) score was 1.1 at 50 h. This compound was also tested in laser-induced hypertensive monkeys, using one single day dose. At 0.003%, the maximum IOP decrease from baseline was 20 mmHg (53%) at 24 h.

[1] = 0.003%, maximum at 30 h (1), 50 h (2)

SMILES | maximum ocular surface hyperemia (OSH) score [1] | maximum ocular surface hyperemia (OSH) score (0.001%, maximum at 74 h)
CCCCCC(O)c1ccc(N2C(=O)CC[C@@H]2CCCc2ccc(C(=O)OCCN3CCOCC3)s2)cc1 (single isomer, unassigned) [Compound 2] | 1.1 | 
CCCCCC(O)c1ccc(N2C(=O)CC[C@@H]2CCCc2ccc(C(=O)OCCO)s2)cc1 (single isomer, unassigned) [Compound 1] | 0.9 | 1.1
